# Data published in ChEMBL document CHEMBL1641439, “The effect of 5-substitution on the electrochemical behavior and antitubercular activity of PA-824” (2011).
# What was measured:
# [1] = system: Mycobacterium tuberculosis; test: Antituberculosis activity against Mycobacterium tuberculosis H37Rv after 2 weeks; assay type: functional; details: 336 h
# [2] = system: Mycobacterium tuberculosis; test: Antituberculosis activity against Mycobacterium tuberculosis H37Rv assessed as minimum anaerobicidal cancentration after 3 weeks; assay type: functional
SMILES,MIC [1] [µM],MAC [2] [µM]
O=[N+]([O-])c1nc2n(c1Cl)C[C@H](OCc1ccc(OC(F)(F)F)cc1)CO2,25,–
Nc1c([N+](=O)[O-])nc2n1C[C@H](OCc1ccc(OC(F)(F)F)cc1)CO2,> 100,>100
O=[N+]([O-])c1nc2n(c1Br)C[C@H](OCc1ccc(OC(F)(F)F)cc1)CO2,25,32.5
N#Cc1c([N+](=O)[O-])nc2n1C[C@H](OCc1ccc(OC(F)(F)F)cc1)CO2,> 100,–
O=[N+]([O-])c1cn2c(n1)OC[C@@H](OCc1ccc(OC(F)(F)F)cc1)C2 [PRETOMANID],0.8,8
